# Results taken from patent US20080166323A1, “Activators of Hexosamine Biosynthesis as Inhibitors of Injury Induced by Ischemia or Hermorrhagic Shock” (UAB RESEARCH FOUNDATION, priority 2004, published 2008).
# Legend:
# [1] = system: rat model of trauma-hemorrhage and resuscitation; assay: trauma/hemorrhage mimicking the field, Example 2 (glucosamine only during resuscitation); type: in vivo
# Method: The following experiments were conducted using a model of soft tissue trauma-hemorrhage (T-H) as described in Ba, et al., Crit. Care Med (2000) 28(8):2837-2842; Chaudry, et al., Can J Physiol Pharmacol (1975) 53(5):859-865; Ma, et al., Am J Physiol Gastrointest Liver Physiol (2003) 284(1):G107-G115; and Harkema and Chaudry, Crit. Care Med (1992) 20(2):263-275. Male rats were fasted for 16 h and divided into three groups: (1) sham (trauma only); (2) T-H (trauma with subsequent hemorrhage and resuscitation); and (3) G-T-H (trauma with subsequent hemorrhage and resuscitation in the presence of glucosamine). All groups underwent a 5 cm ventral midline laparotomy to induce soft-tissue trauma and were cannulated in both femoral arteries and the right femoral vein. The T-H and G-T-H groups received an infusion of 3 mls over 30 minutes of Ringer's lactate (RL) containing, in the G-T-H group only, 10 mM glucosamine. These two groups were then bled to a mean arterial pressure of 40 mm Hg within 10 minutes and maintained at that pressure for 80 minutes. The T-H group was then infused with 1 ml RL over 10 minutes, while in the G-T-H group the infusate contained an iso-osmotic solution of 75 mM glucosamine (pH 7.4) in 50% RL. The two groups were then resuscitated with four times the maximum hemorrhage volume over a period of 60 minutes with RL (T-H) or RL containing 10 mM glucosamine (G-T-H). Sham-operated animals underwent the same surgical procedure but were neither bled nor resuscitated. Two hours post-resuscitation, a catheter was inserted into the left ventricle via the right carotid artery. Organ blood flows were determined using radioactive microspheres. Cardiac function and blood parameters were also assessed. The data for these experiments are shown in Tables 1 and 2 (values are mean ±standard error of the mean).
# A second experiment was performed in order to mimic a trauma/hemorrhage in the field. There were no treatments in any of the three groups prior to trauma/hemorrhage. The T-H and G-T-H groups were partially resuscitated identically with two times the maximum hemorrhage volume over a period of 30 minutes. In the G-T-H group, a 1 ml bolus containing an iso-osmotic solution of 75 mM glucosamine (pH 7.4) in 50% RL was administered, while in the T-H group this bolus contained only RL. This was then followed with two times the maximum hemorrhage volume over a period of 30 minutes with RL (T-H) or RL containing 10 mM glucosamine (G-T-H). Sham-operated animals underwent the same surgical procedure but were neither bled nor resuscitated. The data for this experiment are shown in Tables 3 and 4 (values are mean ±standard error of the mean).
# [2] = system: UDP-GlcNAc; assay: UDP-GlcNAc pools in isolated hearts; conditions: 5 mM
# Method: In the experiments above with isolated hearts, glucosamine was protective after only a ten minute pre-incubation. While not wishing to be bound by theory, the mechanism believed to be responsible for the protection is an increase in concentration of an intracellular metabolite of the HBP, which results in an increase in protein-associated O-GlcNAc. […] Increases at ten minutes were 47%. With respect to the second point, experiments were performed in which a monoclonal antibody specific for O-GlcNAc on proteins (CTD110) (Corner, et al, Anal Biochem (2001) 293(2):169-177) was used in an immunoblotting protocol. The specificity of this antibody for O-GlcNAc-containing epitopes is verified in each experiment by the inclusion of 10 mM GlcNAc along with the CTD110 antibody on parallel samples. These samples show no staining (data not shown). CTD110 immunoblots were performed on extracts from isolated hearts following a ten-minute perfusion with buffer or buffer containing 5 mM glucosamine (FIG. 8). […] Intriguingly, one group of newly appearing proteins has molecular masses near 70 kDa and another around 90 kDa. […] Another family of heat shock proteins, HSP-90, has a molecular mass near 90 kDa (Nollen and Morimoto, J Cell Sci (2002) 115(Pt 14):2809-2816). Thus, O-GlcNAc bearing proteins appear to be responsible for the protection.
# [3] = system: O-GlcNAc on proteins; assay: CTD110 immunoblot of O-GlcNAc-containing proteins in isolated heart extracts; conditions: ten-minute perfusion, 5 mM, isolated hearts
# Method: FIG. 8 is a photograph of a CTD110 immunoblot performed on extracts from isolated hearts following a 10-minute perfusion with buffer (control) or buffer containing 5 mM glucosamine (GlcNH2). The differences in the O-GlcNAc-containing protein pattern between the control and the GlcNH2 treated hearts are indicated by arrows.
# In the experiments above with isolated hearts, glucosamine was protective after only a ten minute pre-incubation. While not wishing to be bound by theory, the mechanism believed to be responsible for the protection is an increase in concentration of an intracellular metabolite of the HBP, which results in an increase in protein-associated O-GlcNAc. […] Increases at ten minutes were 47%. With respect to the second point, experiments were performed in which a monoclonal antibody specific for O-GlcNAc on proteins (CTD110) (Corner, et al, Anal Biochem (2001) 293(2):169-177) was used in an immunoblotting protocol. The specificity of this antibody for O-GlcNAc-containing epitopes is verified in each experiment by the inclusion of 10 mM GlcNAc along with the CTD110 antibody on parallel samples. These samples show no staining (data not shown). CTD110 immunoblots were performed on extracts from isolated hearts following a ten-minute perfusion with buffer or buffer containing 5 mM glucosamine (FIG. 8). […]
# [4] = rat, G-T-H (n = 8), 2 h after T-H and resuscitation, Example 2, mean ± SEM
# [5] = rat, G-T-H (n = 8), 2 h after T-H, glucosamine only during resuscitation, mean ± SEM
compound,measurement,setting,value
N[C@H]1C(O)O[C@H](CO)[C@@H](O)[C@@H]1O (stereo partly shown) [glucosamine],protection in trauma/hemorrhage,"[1]; glucosamine only during resuscitation, Example 2",remarkably protective
same,Regional Blood Flow: Brain,[1]; [4],151.58 ± 13.97 ml/min/100 g tissue
same,Regional Blood Flow: Cardiac,[1]; [4],933.65 ± 114.73 ml/min/100 g tissue
same,Regional Blood Flow: Cecum,[1]; [4],86.39 ± 10.70 ml/min/100 g tissue
same,Regional Blood Flow: Gastric,[1]; [4],71.08 ± 6.84 ml/min/100 g tissue
same,Regional Blood Flow: Hepatic Artery,[1]; [4],45.10 ± 6.58 ml/min/100 g tissue
same,Regional Blood Flow: Large Intestine,[1]; [4],96.83 ± 6.90 ml/min/100 g tissue
same,Regional Blood Flow: Lung,[1]; [4],29.71 ± 4.87 ml/min/100 g tissue
same,Regional Blood Flow: Mesenteric,[1]; [4],43.12 ± 9.56 ml/min/100 g tissue
same,Regional Blood Flow: Muscle,[1]; [4],32.97 ± 5.00 ml/min/100 g tissue
same,Regional Blood Flow: Pancreatic,[1]; [4],52.08 ± 5.53 ml/min/100 g tissue
same,Regional Blood Flow: Portal Vein,[1]; [4],211.57 ± 23.79 ml/min/100 g tissue
same,Regional Blood Flow: Renal,[1]; [4],472.07 ± 49.40 ml/min/100 g tissue
same,Regional Blood Flow: Skin,[1]; [4],11.65 ± 1.25 ml/min/100 g tissue
same,Regional Blood Flow: Small Intestine,[1]; [4],233.60 ± 27.07 ml/min/100 g tissue
same,Regional Blood Flow: Splenic,[1]; [4],54.77 ± 4.44 ml/min/100 g tissue
same,Regional Blood Flow: Thymus,[1]; [4],40.70 ± 4.96 ml/min/100 g tissue
same,Regional Blood Flow: Total Hepatic,[1]; [4],256.67 ± 27.12 ml/min/100 g tissue
same,+dp/dt,[1]; [5],13656 ± 7786 mm Hg/sec
same,Cardiac Output,[1]; [5],33.49 ± 2.12 ml/min 100 g body wt
same,Heart Rate,[1]; [5],394.50 ± 13.13 beat/minute
same,Mean Arterial Pressure,[1]; [5],97.88 ± 4.19 mm Hg
same,Oxygen Consumption,[1]; [5],0.93 ± 0.23 ml/min 100 g body wt
same,Oxygen Delivery,[1]; [5],2.52 ± 0.17 ml/min 100 g body wt
same,Oxygen Extraction,[1]; [5],34.48 ± 7.45%
same,Stroke volume,[1]; [5],84.95 ± 4.66 μl/beat/100 g body wt
same,Total Peripheral Resistance,[1]; [5],3.05 ± 0.31 mm Hg/ml/min/100 g body wt
same,−dp/dt,[1]; [5],8549 ± 549 mm Hg/sec
same,increase in UDP-GlcNAc pools,[2]; 30 minute incubation,about 75%
same,increase in UDP-GlcNAc pools,[2]; ten minutes,47%
same,O-GlcNAc-containing protein pattern vs buffer,[3],Clear differences
